Assay results from ChEMBL document CHEMBL5523700, “Discovery and characterization of potent spiro-isoxazole-based cereblon ligands with a novel binding mode” (Eur J Med Chem, 2024).

Legend:
MM1.S = assay: Cytotoxicity against human MM1.S cells assessed as cell survival at 30 uM incubated for 48 hrs by Cell Titer-Glo luminescent assay relative to control; format: functional; settings: read-out: Survival
[1] = Cytotoxicity against human PBMC cells assessed as cell survival at 30 uM incubated for 48 hrs by Cell Titer-Glo luminescent assay relative to control; format: toxicity, cell-based; settings: read-out: Survival
MOLP-8 = assay: Cytotoxicity against human MOLP8 cells assessed as cell survival at 30 uM incubated for 48 hrs by Cell Titer-Glo luminescent assay relative to control; format: functional; settings: read-out: Survival
KMS-12-PE = assay: Cytotoxicity against human KMS-12-PE cells assessed as cell survival at 30 uM incubated for 48 hrs by Cell Titer-Glo luminescent assay relative to control; format: functional; settings: read-out: Survival
[2] = Lipophilicity, logP of compound by HPLC analysis; format: physicochemical
[3] = Stability in human plasma assessed as half-life at 10 uM incubated upto 480 mins by HPLC analysis; format: ADME, cell-free
Protein cereblon = Protein cereblon (Homo sapiens, UniProt Q96SW2); assay: Binding affinity to human CRBN TBD assessed as inhibition constant using BODIPY-uracil as substrate by Microscale thermophoresis assay
Chain of Protein cereblon (Q96SW2 whole entry): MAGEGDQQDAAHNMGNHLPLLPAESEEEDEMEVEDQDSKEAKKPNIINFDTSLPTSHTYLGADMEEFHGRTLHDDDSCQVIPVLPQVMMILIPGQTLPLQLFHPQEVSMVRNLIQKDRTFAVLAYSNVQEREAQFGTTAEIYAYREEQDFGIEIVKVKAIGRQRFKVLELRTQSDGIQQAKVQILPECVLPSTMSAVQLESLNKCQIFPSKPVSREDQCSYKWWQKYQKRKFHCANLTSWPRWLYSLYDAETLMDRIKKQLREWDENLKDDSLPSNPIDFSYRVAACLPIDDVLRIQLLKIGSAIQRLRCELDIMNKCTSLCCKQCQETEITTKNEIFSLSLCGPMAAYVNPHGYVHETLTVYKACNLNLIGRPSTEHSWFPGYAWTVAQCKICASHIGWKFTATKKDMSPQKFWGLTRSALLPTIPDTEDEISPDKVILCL

| Ki (Protein cereblon) | Structure (SMILES) | viability at 30 µM (MM1.S) | viability at 48 h, 30 µM [1] | viability at 30 µM (MOLP-8) | viability at 30 µM (KMS-12-PE) | logP [2] | half-life at 10 µM [3] |
| --- | --- | --- | --- | --- | --- | --- | --- |
|  | O=C1CCC2(CC(c3ccccc3[N+](=O)[O-])=NO2)C(=O)N1 (stereo unspecified) | 81.9% | 71.5% | 75.5% | 88.5% | 1.23 |  |
|  | O=C1CCC2(CC(c3ccccc3Br)=NO2)C(=O)N1 (stereo unspecified) | 88.3% | 74.9% | 100% | 97.8% | 1.68 |  |
|  | O=C1CCC2(CC(c3ccccc3I)=NO2)C(=O)N1 (stereo unspecified) | 69.3% | 100% | 82.2% | 100% | 1.75 |  |
|  | O=C1CCC2(CC(C3CCCCC3)=NO2)C(=O)N1 (stereo unspecified) | 100% | 100% | 97% | 100% | 1.87 |  |
|  | CCCC1=NOC2(CCC(=O)NC2=O)C1 (stereo unspecified) | 76.7% | 100% | 100% | 100% | 0.87 |  |
|  | COc1ccc(C2=NOC3(CCC(=O)NC3=O)C2)c(OC)c1OC (stereo unspecified) | 78.7% | 82.4% | 66.3% | 72.2% | 2.67 |  |
|  | O=C1CCC2(CC(c3c(Cl)cccc3Cl)=NO2)C(=O)N1 (stereo unspecified) | 39.5% | 88.6% | 94.9% | 99.3% | 1.96 |  |
|  | O=C1CCC2(CC(c3ccc(C(=O)O)cc3)=NO2)C(=O)N1 (stereo unspecified) | 95.6% | 99.5% | 100% | 97.3% |  |  |
|  | CC(C)(C)C1=NOC2(CCC(=O)NC2=O)C1 (stereo unspecified) | 75.6% | 100% | 100% | 100% | 1.09 |  |
|  | O=C1CCC2(CC(c3ccccc3Cl)=NO2)C(=O)N1 (stereo unspecified) | 43.3% | 100% | 100% | 100% | 1.64 | 4.97 h |
| 103 µM | CC1(C)CC(=O)NC(=O)C1 |  |  |  |  |  |  |
|  | O=C1CCC2(CC(c3ccccc3F)=NO2)C(=O)N1 (stereo unspecified) | 76.5% | 88.6% | 84.5% | 89.2% | 1.37 |  |
|  | O=C1CCC2(CC(C3CCCC3)=NO2)C(=O)N1 (stereo unspecified) | 62.2% | 89.9% | 93% | 92% | 1.28 |  |
|  | O=C1CCC2(CC(c3ccc(Cl)cc3Cl)=NO2)C(=O)N1 (stereo unspecified) | 71.7% | 100% | 100% | 100% | 2.68 |  |
|  | O=C1CCC2(CC(c3cccnc3)=NO2)C(=O)N1 (stereo unspecified) | 23.2% | 83.6% | 75.5% | 88.9% |  |  |
|  | COc1ccccc1C1=NOC2(CCC(=O)NC2=O)C1 (stereo unspecified) | 94.8% | 100% | 79.3% | 86.6% | 2.22 |  |
|  | CCC(CC)C1=NOC2(CCC(=O)NC2=O)C1 (stereo unspecified) | 89.1% | 91.2% | 94.1% | 98.9% | 1.6 |  |
|  | Nc1cccc2c1C(=O)N(C1CCC(=O)NC1=O)C2=O (stereo unspecified) [POMALIDOMIDE] |  |  |  |  |  | 3.03 h |
|  | O=C1CCC(N2C(=O)c3ccccc3C2=O)C(=O)N1 (stereo unspecified) [THALIDOMIDE] | 11.4% | 94.2% | 31.6% | 44.1% | 0.3 |  |
